{
  "source": "patent US20250213644A1",
  "about": "“COMPOSITIONS AND METHODS FOR TREATMENT OF BONE-RELATED DISEASE OR DISORDER” (priority 2021, published 2025)",
  "key": {"newly formed bone": {"test_system": "newly formed bone", "conditions": "rats, after 6 to 8 weeks of treatment; cited from earlier work"}, "human osteoblasts": {"test_system": "human osteoblasts", "assay": "Human osteoblast proliferation assay with or without SR144528", "conditions": "with CB2-selective antagonist SR144528"}, "[1]": {"test_system": "New-born mouse calvarial osteoblasts", "assay": "Osteoblast proliferation assay (cell counts), WT and CB2−/− mouse-derived cultures"}, "OVX-induced bone loss": {"test_system": "OVX-induced bone loss", "assay": "Rescue of OVX-induced bone loss, μCT of femora", "type": "in vivo, mouse"}, "age-related bone loss": {"test_system": "age-related bone loss", "assay": "Prevention of age-related bone loss in male mice, μCT", "type": "in vivo, mouse", "conditions": "male mice treated from 3 to 6 months of age"}, "[2]": {"test_system": "Ti particle-induced osteolysis", "assay": "Calvarial osteolysis model, Ti particle-induced osteolysis, μCT", "type": "in vivo, mouse", "conditions": "fibrin membranes with Ti particles loaded with 10^−11M 5aa-OGP on mice calvaria; 4 weeks post-op", "description": "FIGS. 5A-5C show the effect of topically administered 5aa-OGP on Ti particle-induced osteolysis in vivo: Fibrin membranes including titanium particles derived from sand-blasted Ti implants, with 5aa-OGP (TiP+5aa-OGP) or with saline (TiP) were implanted onto mice calvaria. Membranes with no TiP were inserted in the control group. Mice were sacrificed 4 weeks post-op. and subjected to CT analysis. FIG. 5A—Pit Resorption Volume over total volume (PR.V/TV), FIG. 5B—Bone volume in the region of interest, chiefly representing the calvarial thickness), and FIG. 5C—Representative CT images of the calvaria. Data are expressed as mean±SD (n=4). *p<0.05 vs. Titanium.\nCalvarial Osteolysis Model. To test the direct effect of Ti particles on inflammation-induced osteolysis in vivo, a mouse calvaria model and μCT analysis specifically designed in our laboratory was used. […]\nμCT analysis—All specimens were scanned and analyzed using a μCT system (CT 50, Scanco Medical AG, Switzerland). […]\nA custom-made algorithm based on Image-Processing Language (IPL, Scanco Medical) was developed to isolate the resorption pits, defined as unmineralized pits that were […] deep on the bone surface. The measured resorption volume was limited to a […] depth because beyond that, the resorption pit was connected to the internal diploe. […]"}, "CB2": {"target": "CB2 (Homo sapiens, UniProt P34972)", "sequence (P34972 whole entry)": "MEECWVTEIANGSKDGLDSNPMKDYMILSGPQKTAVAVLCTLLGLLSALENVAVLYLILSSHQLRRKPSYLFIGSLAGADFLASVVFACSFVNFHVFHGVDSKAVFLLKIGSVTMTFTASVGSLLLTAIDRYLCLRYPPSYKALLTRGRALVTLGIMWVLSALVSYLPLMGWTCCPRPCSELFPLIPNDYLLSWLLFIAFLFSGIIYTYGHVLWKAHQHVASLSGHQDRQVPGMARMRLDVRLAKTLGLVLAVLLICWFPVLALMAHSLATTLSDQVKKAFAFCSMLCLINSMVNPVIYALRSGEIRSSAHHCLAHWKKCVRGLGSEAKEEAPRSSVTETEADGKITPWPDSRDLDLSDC", "conditions": "increasing concentrations of 5aa-OGP; CHO-CB2-derived membranes"}, "[3]": {"conditions": "mouse-derived osteoblast cultures, 48-hour incubation"}, "[4]": {"conditions": "WT OVX mice, 10 ng/day s.c. for 6 weeks"}},
  "data": [
    {"compound": "C=C(C)[C@@H]1CCC(C)=C[C@H]1c1c(O)cc(CCCCC)cc1O", "note": "[CBD, Cannabidiol]", "values": [
      {"measurement": "Quality and biomechanical properties (e.g. bone strength) of the newly formed bone", "setting": "newly formed bone", "value": "enhanced"}
    ]},
    {"compound": "CCCCCCC(C)(C)c1cc(OC)c(C2=C[C@H]3CC[C@]2(CO)C3(C)C)c(OC)c1", "note": "[HU-910, reference compound]", "values": [
      {"measurement": "Proliferative effect in human osteoblasts", "setting": "human osteoblasts", "value": "abrogated"},
      {"measurement": "Osteoblastic proliferative activity", "setting": "[1]; [3]", "value": "nearly an identical dose response relationship"}
    ]},
    {"compound": "YGFGG (listed as Homo sp.) [5aa-OGP]", "values": [
      {"measurement": "Any of the measured bone parameters", "setting": "OVX-induced bone loss; OVX CB2−/− animals, 10 ng/day s.c. for 6 weeks", "value": "no effect"},
      {"measurement": "Cortical bone parameters", "setting": "OVX-induced bone loss; [4]", "value": "did not affect"},
      {"measurement": "Trabecular number (Tb.N)", "setting": "OVX-induced bone loss; [4]", "value": "significant increases"},
      {"measurement": "Trabecular thickness (Tb.Th)", "setting": "OVX-induced bone loss; [4]", "value": "significant increases"},
      {"measurement": "Trabecular volumetric bone mineral density (vBMD)", "setting": "OVX-induced bone loss; [4]", "value": "significant increases"},
      {"measurement": "Trabecular bone volume fraction (BV/TV), change vs. OVX, VEH-treated mice", "setting": "OVX-induced bone loss; WT OVX mice, 10 ng/day s.c. once a day for 6 weeks, starting 6 weeks post-OVX, p=0.035", "value": "+45.9%"},
      {"measurement": "Trabecular connectivity density", "setting": "age-related bone loss", "value": "significantly increased"},
      {"measurement": "Trabecular number", "setting": "age-related bone loss", "value": "significantly increased"},
      {"measurement": "Trabecular thickness", "setting": "age-related bone loss", "value": "significantly increased"},
      {"measurement": "Bone volume in the calvaria (region of interest)", "setting": "[2]", "value": "increased bone volume"},
      {"measurement": "Ti particle-induced osteolysis (Pit Resorption Volume over total volume, PR.V/TV)", "setting": "[2]", "value": "completely prevented this bone loss"},
      {"measurement": "Proliferative effect in human osteoblasts", "setting": "human osteoblasts", "value": "abrogated"},
      {"measurement": "Osteoblastic proliferative activity", "setting": "[1]; CB2−/−-derived murine osteoblasts (genetic ablation of CB2)", "value": "completely abrogated"},
      {"measurement": "Osteoblastic proliferative activity", "setting": "[1]; [3]", "value": "nearly an identical dose response relationship"},
      {"measurement": "Displacement of tritiated CP55,940", "setting": "CB2", "value": "did not displace CP55,940"}
    ]}
  ]
}
